Results taken from patent publication US9090605B2, “Substituted 5-,6- and 7-membered heterocycles, medicaments containing such compounds, and their use” (Vitae Pharmaceuticals, Inc., priority 2010, dated 2015).

Target: T1, 11β-HSD1 (Homo sapiens, UniProt P28845)
Experiment: Inhibition of a microsomal preparation of 11β-HSD1, scintillation proximity assay, microsomes from CHO cells overexpressing human 11β-HSD1 (biological test example 2)
Assay type: biochemical
Parameters: expressed in transfected cells; host or cells: CHO cells (microsomes isolated from them)
Conditions: microsomes from CHO cells overexpressing human 11β-HSD1, SPA, [3H]cortisone, 90 minutes at room temperature; read-out: IC50, inhibitory activity on 11β-HSD 1
Protocol: All reactions were carried out at room temperature in 96 well clear flexible PET Microbeta plates (PerkinElmer). The assay begins by dispensing 49 μl of substrate solution [50 mM HEPES, pH 7.4, 100 mM KCl, 5 mM NaCl, 2 mM MgCl2, 2 mM NADPH and 160 nM [^3H]cortisone (1 Ci/mmol)] and mixing in 1 μL of the test compounds in dimethyl sulfoxide previously diluted in half-log increments (8 points) starting at 0.1 mM. After a 10 minute pre-incubation, 50 μL of enzyme solution containing microsomes isolated from CHO cells overexpressing human 11β-HSD1 (10-20 μg/ml of total protein) was added, and the plates were incubated for 90 minutes at room temperature. The reaction was stopped by adding 50 μl of the SPA beads suspension containing 10 μM 18β-glycyrrhetinic acid, 5 mg/ml protein A coated YSi SPA beads (GE Healthcare) and 3.3 μg/ml of anti-cortisol antibody (East Coast Biologics) in Superblock buffer (Bio-Rad). The plates were shaken for 120 minutes at room temperature, and the SPA signal corresponding to [^3H]cortisol was measured on a Microbeta plate reader.

T1 sequence (P28845 whole entry): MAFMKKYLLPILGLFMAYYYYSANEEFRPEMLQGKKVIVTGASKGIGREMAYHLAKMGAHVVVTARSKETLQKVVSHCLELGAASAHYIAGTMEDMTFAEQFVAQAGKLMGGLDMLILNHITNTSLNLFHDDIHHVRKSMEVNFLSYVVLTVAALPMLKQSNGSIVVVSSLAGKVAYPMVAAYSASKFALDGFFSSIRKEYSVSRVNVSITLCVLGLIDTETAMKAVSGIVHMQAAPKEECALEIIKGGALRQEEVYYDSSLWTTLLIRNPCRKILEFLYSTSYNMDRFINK

Row | SMILES | IC50 [nM]
1 | C[C@@H](c1ccc(-c2ccc(=O)n(C3COC3)c2)cc1)N1CC[C@](CC(C)(C)O)(c2ccccc2)OC1=O [Example 58, (S)-6-(2-Hydroxy-2-methyl-propyl)-3-{(S)-1-[4-(1-oxetan-3-yl-6-oxo-1,6-dihydro-pyridin-3-yl)-phenyl]-ethyl}-6-phenyl-[1,3]oxazinan-2-one] | 4.3
2 | C[C@@H](c1ccc(-c2cnc(N3CCN(C)C3=O)nc2)cc1)N1CC[C@](CC(C)(C)O)(c2ccccc2)OC1=O [Example 29, (S)-6-(2-hydroxy-2-methylpropyl)-3-((S)-1-{4-[2-(3-methyl-2-oxoimidazolidin-1-yl)pyrimidin-5-yl]phenyl}ethyl)-6-phenyl-1,3-oxazinan-2-one] | 9.8
3 | C[C@@H](c1ccc(-c2ccc(C3(C(N)=O)CC3)nc2)cc1)N1CC[C@@](CC2CC2)(CC(C)(C)O)OC1=O [Example 59, 1-[5-(4-{(S)-1-[(S)-6-Cyclopropylmethyl-6-(2-hydroxy-2-methyl-propyl)-2-oxo-[1,3]oxazinan-3-yl]-ethyl}-phenyl)-pyridin-2-yl]-cyclopropanecarboxylic acid amide] | 6.5
4 | C[C@@H](c1ccc(-c2cnc(N3CC(O)C3)nc2)cc1)N1CC[C@](CC(C)(C)O)(c2ccccc2)OC1=O [Example 35, (S)-6-(2-hydroxy-2-methylpropyl)-3-((S)-1-{4-[2-(3-hydroxyazetidin-1-yl)pyrimidin-5-yl]phenyl}ethyl)-6-phenyl-1,3-oxazinan-2-one] | 2.8
5 | C[C@@H](c1ccc(-c2ccn(C3COC3)c(=O)c2)cc1)N1CC[C@](CC(C)(C)O)(c2ccccc2)OC1=O [Example 26, (S)-6-(2-hydroxy-2-methylpropyl)-3-((S)-1-{4-[1-(oxetan-3-yl)-2-oxo-1,2-dihydropyridin-4-yl]phenyl}ethyl)-6-phenyl-1,3-oxazinan-2-one] | 5.2
6 | C[C@@H](c1ccc(-c2cnc(N3CCCC3=O)nc2)cc1)N1CC[C@](CC(C)(C)O)(c2ccccc2)OC1=O [Example 30, (S)-6-(2-hydroxy-2-methylpropyl)-3-((S)-1-{4-[2-(2-oxopyrrolidin-1-yl)pyrimidin-5-yl)phenyl]ethyl}-6-phenyl-1,3-oxazinan-2-one] | 3.2
7 | C[C@@H](c1ccc(-c2cnc(N3CCNC3=O)nc2)cc1)N1CC[C@](CC(C)(C)O)(c2ccccc2)OC1=O [Example 28, (S)-6-(2-hydroxy-2-methylpropyl)-3-((S)-1-{4-[2-(2-oxoimidazolidin-1-yl)pyrimidin-5-yl]phenyl}ethyl)-6-phenyl-1,3-oxazinan-2-one] | 8.4
8 | C[C@@H](c1ccc(-c2ccn(C3CNC3)c(=O)c2)cc1)N1CC[C@](CC(C)(C)O)(c2ccccc2)OC1=O [Example 27, 3-((S)-1-{4-[1-(azetidin-3-yl)-2-oxo-1,2-dihydropyridin-4-yl]phenyl}ethyl)-(S)-6-(2-hydroxy-2-methylpropyl)-6-phenyl-1,3-oxazinan-2-one] | 27.4
9 | C[C@@H](c1ccc(-c2cccc(N3CCCCC3=O)n2)cc1)N1CC[C@](CC(C)(C)O)(c2ccccc2)OC1=O [Example 39, (S)-6-(2-hydroxy-2-methylpropyl)-3-((S)-1-{4-[6-(2-oxopiperidin-1-yl)pyridin-2-yl]phenyl}ethyl)-6-phenyl-1,3-oxazinan-2-one] | 3.7

The next lines start with the values.

Row | IC50 [nM] | SMILES
10 | 0.9 | C[C@@H](c1ccc(-c2ccc(N3CCC3)nn2)cc1)N1CC[C@](CC(C)(C)O)(c2ccccc2)OC1=O [Example 31, 3-((S)-1-{4-[6-(azetidin-1-yl)pyridazin-3-yl]phenyl}ethyl)-(S)-6-(2-hydroxy-2-methylpropyl)-6-phenyl-1,3-oxazinan-2-one]
11 | 0.8 | C[C@@H](c1ccc(-c2cnc(-n3ccccc3=O)s2)cc1)N1CC[C@](CC(C)(C)O)(c2ccccc2)OC1=O [Example 36, (S)-6-(2-hydroxy-2-methylpropyl)-3-((S)-1-{4-[2-(2-oxopyridin-1 (2H)-yl)thiazol-5-yl]phenyl}ethyl)-6-phenyl-1,3-oxazinan-2-one]
12 | 1.1 | C[C@@H](c1ccc(-c2cccc(N3CCOCC3)n2)cc1)N1CC[C@](CC(C)(C)O)(c2ccccc2)OC1=O [Example 40, (S)-6-(2-hydroxy-2-methylpropyl)-3-{(S)-1-[4-(6-morpholinopyridin-2-yl)phenyl]ethyl}-6-phenyl-1,3-oxazinan-2-one]
13 | 1.5 | C[C@@H](c1ccc(-c2ccc(C3(C(N)=O)CC3)nc2)cc1)N1CC[C@](CC(C)(C)O)(c2ccccc2)NC1=O [Example 49, 1-[5-(4-{(S)-1-[(S)-4-(2-Hydroxy-2-methyl-propyl)-2-oxo-4-phenyl-tetrahydro-pyrimidin-1-yl]-ethyl}-phenyl)-pyridin-2-yl]-cyclopropanecarboxylic acid amide]
14 | 0.7 | C[C@@H](c1ccc(-c2cnc(N3CC(F)C3)nc2)cc1)N1CC[C@](CC(C)(C)O)(c2ccccc2)OC1=O [Example 32, 3-((S)-1-{4-[2-(3-fluoroazetidin-1-yl)pyrimidin-5-yl]phenyl}ethyl)-(S)-6-(2-hydroxy-2-methylpropyl)-6-phenyl-1,3-oxazinan-2-one]
15 | 1 | C[C@@H](c1ccc(-c2cnc(N3CCC3)nc2)cc1)N1CC[C@](CC(C)(C)O)(c2ccccc2)OC1=O [Example 34, 3-((S)-1-{4-[2-(azetidin-1-yl)pyrimidin-5-yl)phenyl]ethyl}-(S)-6-(2-hydroxy-2-methylpropyl)-6-phenyl-1,3-oxazinan-2-one]
16 | 2.3 | C[C@@H](c1ccc(-c2ccnc(N3CCOCC3)n2)cc1)N1CC[C@](CC(C)(C)O)(c2ccccc2)OC1=O [Example 38, (S)-6-(2-hydroxy-2-methylpropyl)-3-{(S)-1-[4-(2-morpholinopyrimidin-4-yl)phenyl]ethyl}-6-phenyl-1,3-oxazinan-2-one]
17 | 2.3 | C[C@@H](c1ccc(-c2cccc(-n3ccccc3=O)n2)cc1)N1CC[C@](CC(C)(C)O)(c2ccccc2)OC1=O [Example 41, (S)-6-(2-hydroxy-2-methylpropyl)-3-((S)-1-{4-[6-(2-oxopyridin-1 (2H)-yl)pyridin-2-yl]phenyl}ethyl)-6-phenyl-1,3-oxazinan-2-one]

Target: T1, 11β-HSD1
Experiment: In vitro inhibition of 11β-HSD1, HTRF detection of cortisol generated by human liver microsomes (biological test example 1)
Assay type: biochemical
Parameters: detecting cortisol generated from cortisterone by human liver microsomes; from tissue; host or cells: human liver microsomes
Conditions: 1 hour at 37° C., cortisone 80 nM, NADPH 200 μM, read-out: IC50, inhibitory activity on 11β-HSD 1
Protocol: Briefly, compounds were incubated for 1 hour at 37° C. in Tris buffer (20 mM tris, 5 mM EDTA, pH 6.0) containing NADPH (200 μM) and cortisone (80 nM). Cortisol generated in the reaction was then detected with a competitive immunoassay, involving two HTRF conjugates: cortisol linked to XL665 and anti-cortisol antibody labeled with Europium cryptate. The incubation period for detection reaction was typically 2 hours. The amount of cortisol was determined by reading the time-resolved fluorescence of the wells (Ex 320/75 nm; Em 615/8.5 nm and 665/7.5 nm). The ratio of the two emission signals was then calculated (Em665*10000/Em615). […] Each assay also contained a calibration curve with cortisol to transform the fluorescent data into cortisol concentrations. Percent inhibition (% CTL) of each compound was determined relative to the carbenoxolone signal and IC50 curves were generated.

Row | IC50 [nM] | SMILES
18 | 67 | C[C@@H](c1ccc(-c2ccc(C3(C(N)=O)CCCCC3)nc2)cc1)N1CC[C@](CC(C)(C)O)(c2ccccc2)OC1=O [Example 43, 1-[5-(4-{(S)-1-[(S)-6-(2-Hydroxy-2-methyl-propyl)-2-oxo-6-phenyl-[1,3]oxazinan-3-yl]-ethyl}-phenyl)-pyridin-2-yl]-cyclohexanecarboxylic acid amide]
19 | 43 | C[C@@H](c1ccc(-c2ccc(N3CCC[C@@H]3C(N)=O)nc2)cc1)N1CC[C@](CC(C)(C)O)(c2ccccc2)OC1=O [Example 53, (R)-1-[5-(4-{(S)-1-[(S)-6-(2-Hydroxy-2-methyl-propyl)-2-oxo-6-phenyl-[1,3]oxazinan-3-yl]-ethyl}-phenyl)-pyridin-2-yl]-pyrrolidine-2-carboxylic acid amide]
20 | 80 | C[C@@H](c1ccc(-c2ccc(C3(C(N)=O)CCC3)nc2)cc1)N1CC[C@](CC(C)(C)O)(c2ccccc2)OC1=O [Example 51, 1-[5-(4-{(S)-1-[(S)-6-(2-Hydroxy-2-methyl-propyl)-2-oxo-6-phenyl-[1,3]oxazinan-3-yl]-ethyl}-phenyl)-pyridin-2-yl]-cyclobutanecarboxylic acid amide]
21 | 84 | C[C@@H](c1ccc(-c2ccc(C3(S(C)(=O)=O)CC3)cn2)cc1)N1CC[C@](CC(C)(C)O)(c2ccccc2)OC1=O [Example 25, (S)-6-(2-Hydroxy-2-methyl-propyl)-3-((S)-1-{4-[5-(1-methanesulfonyl-cyclopropyl)-pyridin-2-yl]-phenyl}-ethyl)-6-phenyl-[1,3]oxazinan-2-one]
22 | 61 | CNC(=O)C1(c2ccc(-c3ccc([C@H](C)N4CC[C@](CC(C)(C)O)(c5ccccc5)OC4=O)cc3)nn2)CC1 [Example 10, 1-[6-(4-{(S)-1-[(S)-6-(2-Hydroxy-2-methyl-propyl)-2-oxo-6-phenyl-[1,3]oxazinan-3-yl]-ethyl}-phenyl)-pyridazin-3-yl]-cyclopropanecarboxylic acid methylamide]
23 | 56 | C[C@@H](c1ccc(-c2ccnc(C3(C(N)=O)CC3)c2)cc1)N1CC[C@](CC(C)(C)O)(c2ccccc2)OC1=O [Example 46, 1-[4-(4-{(S)-1-[(S)-6-(2-Hydroxy-2-methyl-propyl)-2-oxo-6-phenyl-[1,3]oxazinan-3-yl]-ethyl}-phenyl)-pyridin-2-yl]-cyclopropanecarboxylic acid amide]
